How the values were obtained:
human NK1 receptor = target: T1, human NK1 receptor (Homo sapiens, UniProt P25103); assay: human NK1 receptor binding assay (125I-substance P, COS or CHO cells)
T1 construct: expressed in transfected cells
Description: To express the cloned human neurokinin-1 receptor (NKIR) transiently in COS, the cDNA for the human NKIR was cloned into the expression vector pCDM9 which was derived from pCDM8 (INVITROGEN) by inserting the ampicillin resistance gene (nucleotide 1973 to 2964 from BLUESCRIPT SK+) into the Sac II site. Transfection of 20 ug of the plasmid DNA into 10 million COS cells was achieved by electroporation in 800 ul of transfection buffer (135 mM NaCl, 1.2 mM CaCl2, 1.2 mM MgCl2, 2.4 mM K2HPO4, 0.6 mM KH2PO4, 10 mM glucose, 10 mM HEPES pH 7.4) at 260 V and 950 uF using the IBI GENEZAPPER (IBI, New Haven, Conn.). The cells were incubated in 10% fetal calf serum, 2 mM glutamine, 100U/ml penicillin-streptomycin, and 90% DMEM media (GIBCO, Grand Island, N.Y.) in 5% CO2 at 37° C. for three days before the binding assay.
To establish a stable cell line expressing the cloned human NK1R, the cDNA was subcloned into the vector pRcCMV (INVITROGEN). Transfection of 20 ug of the plasmid DNA into CHO cells was achieved by electroporation in 800 ul of transfection buffer suplemented with 0.625 mg/ml Herring sperm DNA at 300 V and 950 uF using the IBI GENEZAPPER (IBI). The transfected cells were incubated in CHO media [10 % fetal calf serum, 100 U/ml pennicilin-streptomycin, 2 mM glutamine, 1/500 hypoxanthine-thymidine (ATCC), 90% IMDM media (JRH BIOSClENCES, Lenexa, Kans.), 0.7 mg/ml G418 (GIBCO)] in 5% CO2 at 37° C. until colonies were visible. Each colony was separated and propagated. The cell clone with the highest number of human NK1R was selected for subsequent applications such as drug screening.
The binding assay of human NK1R expressed in either COS or CHO cells is based on the use of ^125I-substance P (^125I-SP, from DU PONT, Boston, Mass.) as a radioactively labeled ligand which competes with unlabeled substance P or any other ligand for binding to the human NK1R. Monolayer cell cultures of COS or CHO were dissociated by the non-enzymatic solution (SPECIALTY MEDIA, Lavallette, N.J.) and resuspended in appropriate volume of the binding buffer (50 mM Tris pH 7.5, 5 mM MnCl2, 150 mM NaCl, 0.04 mg/ml bacitracin, 0.004 mg/ml leupeptin, 0.2 mg/ml BSA, 0.01 mM phosphoramidon) such that 200 ul of the cell suspension would give rise to about 10,000 cpm of specific ^125I-SP binding (approximately 50,000 to 200,000 cells). […] The bound radioactivity was separated from unbound radioactivity by GF/C filter (BRANDEL, Gaithersburg, Md.) which was pre-wetted with 0.1 % polyethylenimine. The filter was washed with 3 ml of wash buffer (50 mM Tris pH 7.5, 5 mM MnCl2, 150 mM NaCl) three times and its radioactivity was determined by gamma counter.

[1] = target: T2, recombinant human CYP isozymes (Homo sapiens, UniProt P08684); assay: metabolism by microsomes containing recombinant human CYP isozymes; type: in vitro ADME; settings: parent to M-1 (N-dealkylation); M-1 to M-2 (oxidation); M-3 to M-4 (hydroxylation); M-2 to M-5 (conversion)
T2 construct: host or cells: Baculovirus-infected sf21 insect cells (microsomes)
T2 sequence (P08684 2-503 limits assumed): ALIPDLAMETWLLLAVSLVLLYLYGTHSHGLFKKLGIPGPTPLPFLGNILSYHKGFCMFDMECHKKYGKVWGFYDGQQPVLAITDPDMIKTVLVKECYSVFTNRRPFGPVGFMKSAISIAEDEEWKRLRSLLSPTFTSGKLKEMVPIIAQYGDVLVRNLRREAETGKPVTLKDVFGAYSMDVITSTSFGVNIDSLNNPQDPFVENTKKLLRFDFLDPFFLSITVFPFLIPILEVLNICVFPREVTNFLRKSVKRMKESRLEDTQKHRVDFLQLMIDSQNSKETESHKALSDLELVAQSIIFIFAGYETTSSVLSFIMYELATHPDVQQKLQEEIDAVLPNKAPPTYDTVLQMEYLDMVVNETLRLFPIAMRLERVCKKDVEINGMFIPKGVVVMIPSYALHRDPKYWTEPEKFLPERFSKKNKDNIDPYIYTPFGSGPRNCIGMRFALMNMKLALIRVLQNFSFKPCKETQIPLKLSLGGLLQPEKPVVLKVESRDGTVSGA
Description: Hepatocytes were harvested from male Sprague-Dawley rat livers or human livers and cultured on a matrigel support and treated with 0.1 μM dexamethasone or 50 μM rifampicin, respectively, for 48 hr prior to the addition of the test compounds. A 2.5 mM stock solution of [^14C]2-(R)-(1-(R)-(3,5-bis(trifluoromethyl)-phenyl)ethoxy)-3-(S)-(4-fluoro)phenyl-4-(3-(5-oxo-1H,4H-1,2,4-triazolo)methylmorpholine, [^14C]M-1 or [^14C]M-2 in DMSO was added to the plates such that the final concentration of test compound was 25 μM and DMSO was 1% (v/v). The cultures were incubated for 4, 6 or 24 hr for rat hepatocytes and 48 hr for human hepatocytes. The incubation mixtures (500 μL) contained 10 μM of test compound, 100 mM phosphate buffer pH 7.4, NADPH-regenerating system, microsomes containing expressed CYP isoforms (CYP1A2, CYP2A6, CYP2B6, CYP2C8, CYP2C9, CYP2C19, CYP2D6, CYP2E1 or CYP3A4) and cytochrome P-450 reductase. The reactions were initiated by adding NADP and proceeded at 37° C. for 15-45 min. Acetonitrile extracts from microsomal and hepatocyte incubates were dissolved in 50% aqueous methanol and fractionated by HPLC. The separation was accomplished on a Zorbax RX C8 analytical column (5 μm, 4.6×250 mm). The mobile phase consisted of solvent A (10 mM ammonium acetate in water) and solvent B (7.3 mM ammonium acetate in 92.7% acetonitrile and 7.3% methanol. The column was eluted by a linear gradient from 35 to 80% B over 40 min at a flow rate of 1 mL/min. Fractions of major metabolites were subjected to LC-MS/MS analysis. Further purification was done using isocratic conditions prior to NMR analysis.
The incubation mixtures (500 μL) contained 10 or 25 μM of test compounds, 100 mM phosphate buffer pH 7.4, NADPH-regenerating system (5 mM glucose-6-phosphate, 1 mM NADP and 0.7 I.U/mL glucose 6-phosphate dehydrogenase), 0.5 to 2 mg/mL liver microsomal protein prepared from rats and humans or microsomes from Baculovirus-infected sf21 cells containing 20 to 200 pmol expressed CYP isoforms (CYP1A2, CYP2A6, CYP2B6, CYP2C8, CYP2C9, CYP2C19, CYP2D6, CYP2E1 or CYP3A4) and cytochrome P450 reductase. Stock solutions of the substrates in methanol were made such that final concentration of methanol in the reaction mixture was 3%. The reactions were initiated by adding 50 μL of 10 mM NADP and proceeded at 37° C. for 15-45 min. After incubation, the reactions were terminated by the addition of four volumes of acetonitrile. The suspensions were mixed vigorously and centrifuged at 3000×g for 5 min. The supernatants were dried and redissolved in 50% methanol for HPLC analysis using method A described below.

[2] = oxidative metabolism in liver microsomes from rats; type: in vitro ADME; settings: rat liver microsomes, 45 min
Description: (§1) All liver microsomal and cytosolic fractions were prepared using the following procedure. Thawed livers were homogenized with 2 volumes of 50 mM Tris-buffer (pH 7.5) containing 1.15% KCl. For microsomal and cytosolic preparations, the homogenate was centrifuged for 20 min at 9,000×g and the resulting supernatant was centrifuged for 60 min at 105,000×g. The resulting cytosolic fractions were re-centrifuged at 105,000×g for 60 min. Fractions of cytosol were aliquoted into small tubes and stored at −70° C. Subsequently, the microsomal pellets were washed with 10 mM EDTA containing 1.15% KCl and were centrifuged at 105,000×g for 60 min. Washed microsomes were resuspended in 10 mM potassium phosphate buffer (pH 7.4) containing 250 mM sucrose, aliquoted into small tubes, and stored at −70° C. Protein concentrations were determined by a modified Lowry assay (Smith et al., 1985). The specific cytochrome P450 content in each microsomal preparation was measured as described by Omura and Sato, J. Biol. Chem. 239, 2370-2378 (1964). […]
(§2) Method A was conducted on a Shimadzu HPLC system (Shimadzu Scientific Instruments Inc., Columbia Md.). The parent compounds and their metabolites were monitored directly using a radiometric detector (INUS Systems Inc. Tampa, Fla.) and Ultima-Flow M (Packard Instrument Co., Meridan Conn.) as scintillant at a flow rate of 3 mL/min. […]

[3] = oxidative metabolism in liver microsomes from humans; type: in vitro ADME; settings: human liver microsomes, 45 min
Description: as §1, §2

T1 sequence (P25103 whole entry): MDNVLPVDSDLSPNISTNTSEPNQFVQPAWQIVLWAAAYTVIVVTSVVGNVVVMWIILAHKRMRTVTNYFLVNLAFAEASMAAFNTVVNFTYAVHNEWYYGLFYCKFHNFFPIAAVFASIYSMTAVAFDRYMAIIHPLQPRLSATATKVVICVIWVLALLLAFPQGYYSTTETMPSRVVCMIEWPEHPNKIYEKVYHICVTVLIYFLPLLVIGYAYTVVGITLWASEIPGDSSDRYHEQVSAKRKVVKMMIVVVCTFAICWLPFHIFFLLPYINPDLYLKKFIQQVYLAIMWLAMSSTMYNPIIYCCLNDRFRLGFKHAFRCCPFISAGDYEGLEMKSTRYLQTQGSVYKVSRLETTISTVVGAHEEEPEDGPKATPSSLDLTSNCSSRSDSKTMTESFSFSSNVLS

SMILES	IC50 (human NK1 receptor)	CYP isozyme primarily responsible for the metabolic step [1]	conversion in microsomes in the presence of an NADPH regenerating system [2]	conversion in microsomes in the presence of an NADPH regenerating system [3]
C[C@@H](O[C@H]1OCCN=C1c1ccc(F)cc1)c1cc(C(F)(F)F)cc(C(F)(F)F)c1 [Metabolite M-2, (2R)-2-[(1R)-1-[3,5-bis(trifluoromethyl)phenyl]ethoxy]-3-(4-fluorophenyl)-5,6-dihydro-2H-1,4-oxazine]	~0.01 µM	CYP3A4	–	–
C[C@@H](O[C@H]1OCC(=O)N[C@H]1c1ccc(F)cc1)c1cc(C(F)(F)F)cc(C(F)(F)F)c1 [Metabolite M-3, (5S,6R)-6-[(1R)-1-[3,5-bis(trifluoromethyl)phenyl]ethoxy]-5-(4-fluorophenyl)-3-morpholinone]	0.004 µM	CYP3A4	–	–
C[C@@H](O[C@@H](OCC(=O)O)C(O)c1ccc(F)cc1)c1cc(C(F)(F)F)cc(C(F)(F)F)c1 (stereo partly drawn) [Metabolite M-6, [(1R)-1-[(1R)-1-[3,5-bis(trifluoromethyl)phenyl]ethoxy]-2-(4-fluorophenyl)-2-hydroxyethoxy]acetic acid]	0.018 µM	–	–	–
C[C@@H](O[C@H]1OCCN(Cc2n[nH]c(=O)[nH]2)[C@H]1c1ccc(F)cc1)c1cc(C(F)(F)F)cc(C(F)(F)F)c1 [Parent Compound, 5-[[(2R,3S)-2-[(1R)-1-[3,5-bis(trifluoromethyl)phenyl]ethoxy]-3-(4-fluorophenyl)4-morpholinyl]methyl]-1,2-dihydro-3H-1,2,4-triazol-3-one, reference compound]	–	CYP3A4	< 2%	< 2%
